Legend:
[1] = system: w836 DNA (146 bp); test: DNA alkylation selectivity and efficiency, thermally-induced strand cleavage of w836 DNA; format: biochemical
Protocol: FIG. 6 illustsrates thermally-induced strand cleavage of w836 DNA (146 bp, nucleotide nos. 5189-91): DNA-agent incubation for 24 h ((−)-iso-CBI-TMI) at 25° C., removal of unbound agent and 30 min of thermolysis (100° C.), followed by denaturing 8% PAGE and autoradiography; lane 1, control DNA; lanes 2-5, Sanger G, C, A, and T sequencing reactions; lanes 6-8 (−)-iso-CBI-TMI ([…] to 1×10^−5 M); lanes 9-10, (+)-duocarmycin SA (1×10^−5 to 1×10^−6 M); lanes 11-12, (+)-iso-CBI-TMI (1×10^−2 and 1×10^−3).
DNA Alkylation Selectivity and Efficiency: The DNA alkylation properties of the agents were examined within w794 and w836 duplex DNA for which comparative results are available for related agents. (Boger, D. L., et al., J. Am. Chem. Soc. 1994, 116, 11335; Boger, D. L., et al., J. Am. Chem. Soc. 1994, 116, 6461; and Boger, D. L., et al., J. Am. Chem. Soc. 1995, 117, 11647) The alkylation site identification and the assessment of the relative selectivity among the available sites were obtained by thermally-induced strand cleavage of the singly 5′ end-labeled duplex DNA after exposure to the agents. […]

[2] = system: w794 DNA (SV40 DNA segment, 144 bp); settings: from earlier studies (refs 10, 11); cited from earlier work

Row | Structure (SMILES) | DNA alkylation sites / selectivity [1] | DNA alkylation efficiency, less efficient than duocarmycin SA [2]
1 | COc1cc2cc(C(=O)N3CC4CC45C(=O)c4ccccc4C=C35)[nH]c2c(OC)c1OC (single isomer, unassigned; (+)) [(+)-iso-CBI-TMI, 2-[(5,6,7-Trimethoxyindol-2-yl)carbonyl]-1,2,9,9a-tetrahydrocyclopropa[c]benzo[f]indol-8-one] | selectivity identical to that of ent-(-duocarmycin SA | –
2 | COC(=O)[C@]1(C)NC2=C(C1=O)[C@@]13C[C@@H]1CN(C(=O)c1cc4cc(OC)c(OC)c(OC)c4[nH]1)C3=CC2=O [duocarmycin A] | – | ca. 10 ×
